# Reference: patent US7914817B2, “Treatment of inflammatory bowel disease” (Ed. Geistlich Soehne AG fuer Chemische Industrie, priority 2000, dated 2011)
# What was measured:
# [1] = system: gram positive and gram negative bacteria and fungi; conditions: cited from earlier work
# [2] = humans and animals, intravenous and intraperitoneal administration; cited from earlier work
# [3] = system: inflammatory response in intestinal mucosa in patients with active inflammatory bowel disease; assay: Oral taurolidine in patients with active IBD: inflammatory response in intestinal mucosa (Example 2); assay type: in vivo
# Text: This example evaluates the beneficial effect of oral administration of taurolidine on amelioration of inflammatory response in intestinal mucosa in patients with active inflammatory bowel disease. This Example measures proinflammatory cytokines, angiogenic cytokines, reactive oxygen species and nitric oxide in the mucosal biopsy cultures in patients with IBD pre- and post-taurolidine administration. Local mucosal recruited PMN and mononuclear leukocyte-associated proinflammatory cytokine and angiogenic cytokine expression in patients with IBD are assessed pre- and post-taurolidine treatment.
# • 1) The specimens of standard intestinal mucosal biopsy are collected from patients with IBD on the day before taurolidine administration, and day 5 and day 10 after taurolidine administration, and incubated with completed culture medium for different time points. The supernatants from the biopsy cultures are harvested by centrifugation and stored at −80° C. for measurement of proinflammatory cytokines (TNF-α, IL-1β, IL-6), angiogenic cytokines (VEGF, TGF-β1), lipid peroxides (malonaldehyde), nitric oxide and peroxynitrite. • 2) The mononuclear leukocytes from the above specimens of mucosal biopsy are isolated using the technique of collagenase-digestion and density gradient sedimentation. […]
# [4] = system: systemic inflammatory response in patients with active inflammatory bowel disease; assay: Oral taurolidine in patients with active IBD: systemic inflammatory response (Example 1); assay type: in vivo; conditions: pre- vs post-administration (day 2, 5, 10)
# Experimental: This experiment evaluates the beneficial effects of oral administration of taurolidine on attenuation of systemic inflammatory response in patients with active inflammatory bowel disease. This Example measures systemic proinflammatory and angiogenic cytokines, systemic reactive oxygen species and nitric oxide in patients with IBD pre- and post-taurolidine administration. Secondly, circulating PMN and monocytes from patients with IBD are assessed for their adhesion receptor expression, and their ability to release proinflammatory and angiogenic cytokines, as well as reactive oxygen species and nitric oxide following taurolidine treatment.
# • 1) Peripheral venous blood samples are collected from patients on the day before taurolidine administration, and day 2, day 5 and day 10 after taurolidine administration. Serum samples are harvested by centrifugation and stored at −80° C. for measurement of serum levels of endotoxin, LPS binding protein (LBP), and soluble CD14, serum proinflammatory cytokines (TNF-α, IL-1β, IL-6), serum angiogenic cytokines (VEGF, TGF-β1), serum lipid peroxides (malonaldehyde), nitric oxide and peroxynitrite. • 2) Receptor expression of CD11a, CD11b, CD18, and CD14 on PMN and monocytes in the whole blood samples are assessed on the day before taurolidine administration, and day 2, day 5, and day 10 after taurolidine administration. […]
# [5] = metabolized to taurine, carbon dioxide and water; cited from earlier work
compound,measurement,setting,value
"O=S1(=O)CCN(CN2CCS(=O)(=O)NC2)CN1 [Taurolidine, bis(1,1-dioxoperhydro-1,2,4-thiadiazin-4-yl)methane]",antimicrobial activity,[1],broad spectrum of antimicrobial activity
same,toxicity / side effects,[2],non-toxic to humans and animals and is free from side effects
same,pathological changes in intestinal mucosa,[3]; day before vs day 5 and day 10,improves pathological changes in intestinal mucosa
same,"proinflammatory cytokines, angiogenic cytokines, reactive oxygen species, recruitment of PMN and mononuclear leukocytes in the intestinal mucosa",[3]; mucosal biopsy,downregulation
same,"systemic proinflammatory and angiogenic cytokine levels, PMN and monocyte adhesion receptor expression, lipid peroxides, nitric oxide, peroxynitrite",[4],ameliorates these phenomena
same,half life,[5],short half life
